From patent US20070219348A1, “Mutations in the mineralocorticoid receptor ligand binding domain polypeptide that permit structural determination of low affinity ligand complexes and screening methods employing same” (priority 2006, published 2007)
Read-outs that look alike come from different tables or passages of the source.

Columns and labels:
[1] = target: Reporter Alone; experiment: Ligand binding affinities on MR constructs (Table 1), Reporter Alone; conditions: read-out: IC50 binding affinity, Reporter Alone
Method: (§1) As used herein, the terms “weakly binding ligand” and “weak ligand” are used interchangeably and mean a ligand that binds a receptor with low affinity. The binding strength of a ligand to a receptor can be experimentally measured using any of several procedures, as is generally known in the art. In some embodiments of the presently disclosed subject matter, ligand binding is measured using a competitive binding assay in which a ligand of interest competes with a labeled ligand for binding to a receptor. […] This quantitative measurement can be expressed as an IC50 value. Therefore, the greater the IC50 value of a ligand, the lower the binding affinity the ligand has for the receptor.
(§2) Cortisol has a hydroxyl attached to C11, where cortisone has a ketone.

[2] = target: T1, Wild type MR (Homo sapiens, UniProt P08235); experiment: Ligand binding affinities on MR constructs (Table 1), wild type MR
T1 sequence (P08235 1-984): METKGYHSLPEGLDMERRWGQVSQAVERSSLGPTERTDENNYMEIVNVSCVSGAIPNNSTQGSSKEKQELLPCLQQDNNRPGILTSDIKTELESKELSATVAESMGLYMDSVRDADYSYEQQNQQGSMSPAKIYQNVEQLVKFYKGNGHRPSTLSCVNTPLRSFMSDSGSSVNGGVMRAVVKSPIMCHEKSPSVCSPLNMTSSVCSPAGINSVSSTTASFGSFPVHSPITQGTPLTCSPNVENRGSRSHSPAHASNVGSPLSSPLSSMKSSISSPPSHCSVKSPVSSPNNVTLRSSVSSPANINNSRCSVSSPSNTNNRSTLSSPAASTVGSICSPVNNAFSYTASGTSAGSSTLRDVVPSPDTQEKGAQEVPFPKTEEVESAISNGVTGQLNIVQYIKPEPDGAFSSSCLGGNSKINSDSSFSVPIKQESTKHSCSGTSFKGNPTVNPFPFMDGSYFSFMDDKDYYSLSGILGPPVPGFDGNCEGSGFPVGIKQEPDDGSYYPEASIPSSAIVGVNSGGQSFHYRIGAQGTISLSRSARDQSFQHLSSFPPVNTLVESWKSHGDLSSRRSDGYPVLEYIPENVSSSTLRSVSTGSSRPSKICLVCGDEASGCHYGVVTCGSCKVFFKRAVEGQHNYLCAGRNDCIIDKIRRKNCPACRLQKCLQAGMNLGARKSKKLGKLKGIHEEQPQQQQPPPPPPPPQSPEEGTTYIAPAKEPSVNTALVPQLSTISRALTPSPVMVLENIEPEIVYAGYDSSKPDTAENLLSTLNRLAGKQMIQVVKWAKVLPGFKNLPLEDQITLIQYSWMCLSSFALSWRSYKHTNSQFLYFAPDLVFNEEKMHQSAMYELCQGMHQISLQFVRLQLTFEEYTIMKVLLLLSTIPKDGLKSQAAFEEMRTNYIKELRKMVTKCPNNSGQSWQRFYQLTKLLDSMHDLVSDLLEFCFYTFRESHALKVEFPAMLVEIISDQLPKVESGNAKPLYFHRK
Method: as §1, §2

[3] = target: T2, MR (Homo sapiens, UniProt P08235); conditions: Quinkler & Stewart, 2003; cited from earlier work
T2 sequence (P08235 1-984): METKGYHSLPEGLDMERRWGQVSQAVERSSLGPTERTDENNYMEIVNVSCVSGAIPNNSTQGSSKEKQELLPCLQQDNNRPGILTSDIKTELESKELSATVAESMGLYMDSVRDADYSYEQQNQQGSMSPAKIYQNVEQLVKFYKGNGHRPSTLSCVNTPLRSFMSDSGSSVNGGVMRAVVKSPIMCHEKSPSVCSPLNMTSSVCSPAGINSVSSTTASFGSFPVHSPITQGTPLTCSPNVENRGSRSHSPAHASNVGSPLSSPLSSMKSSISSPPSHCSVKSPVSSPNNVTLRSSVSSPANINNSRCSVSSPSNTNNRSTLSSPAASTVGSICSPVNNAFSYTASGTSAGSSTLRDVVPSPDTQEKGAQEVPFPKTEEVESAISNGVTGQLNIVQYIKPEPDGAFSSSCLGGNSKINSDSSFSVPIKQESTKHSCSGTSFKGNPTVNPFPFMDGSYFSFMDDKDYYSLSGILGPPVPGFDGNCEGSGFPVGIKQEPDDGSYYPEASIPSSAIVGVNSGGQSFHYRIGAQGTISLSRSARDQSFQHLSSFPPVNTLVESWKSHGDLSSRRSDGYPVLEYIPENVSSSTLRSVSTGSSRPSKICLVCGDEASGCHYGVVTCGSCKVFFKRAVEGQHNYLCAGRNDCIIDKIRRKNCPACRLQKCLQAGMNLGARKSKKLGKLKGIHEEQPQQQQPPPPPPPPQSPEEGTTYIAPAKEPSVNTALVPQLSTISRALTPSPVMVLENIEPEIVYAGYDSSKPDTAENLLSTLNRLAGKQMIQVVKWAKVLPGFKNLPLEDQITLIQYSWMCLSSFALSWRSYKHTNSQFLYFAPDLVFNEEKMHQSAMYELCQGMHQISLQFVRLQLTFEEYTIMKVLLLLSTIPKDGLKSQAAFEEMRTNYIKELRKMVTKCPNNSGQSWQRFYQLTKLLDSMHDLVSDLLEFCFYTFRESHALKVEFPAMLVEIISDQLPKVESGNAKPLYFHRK

[4] = target: T3, MR S810L (Homo sapiens, UniProt P08235, S810L); experiment: Ligand binding affinities on MR constructs (Table 1), MR S810L; conditions: read-out: IC50 binding affinity, MR S810L
T3 sequence (P08235 1-984 S810L): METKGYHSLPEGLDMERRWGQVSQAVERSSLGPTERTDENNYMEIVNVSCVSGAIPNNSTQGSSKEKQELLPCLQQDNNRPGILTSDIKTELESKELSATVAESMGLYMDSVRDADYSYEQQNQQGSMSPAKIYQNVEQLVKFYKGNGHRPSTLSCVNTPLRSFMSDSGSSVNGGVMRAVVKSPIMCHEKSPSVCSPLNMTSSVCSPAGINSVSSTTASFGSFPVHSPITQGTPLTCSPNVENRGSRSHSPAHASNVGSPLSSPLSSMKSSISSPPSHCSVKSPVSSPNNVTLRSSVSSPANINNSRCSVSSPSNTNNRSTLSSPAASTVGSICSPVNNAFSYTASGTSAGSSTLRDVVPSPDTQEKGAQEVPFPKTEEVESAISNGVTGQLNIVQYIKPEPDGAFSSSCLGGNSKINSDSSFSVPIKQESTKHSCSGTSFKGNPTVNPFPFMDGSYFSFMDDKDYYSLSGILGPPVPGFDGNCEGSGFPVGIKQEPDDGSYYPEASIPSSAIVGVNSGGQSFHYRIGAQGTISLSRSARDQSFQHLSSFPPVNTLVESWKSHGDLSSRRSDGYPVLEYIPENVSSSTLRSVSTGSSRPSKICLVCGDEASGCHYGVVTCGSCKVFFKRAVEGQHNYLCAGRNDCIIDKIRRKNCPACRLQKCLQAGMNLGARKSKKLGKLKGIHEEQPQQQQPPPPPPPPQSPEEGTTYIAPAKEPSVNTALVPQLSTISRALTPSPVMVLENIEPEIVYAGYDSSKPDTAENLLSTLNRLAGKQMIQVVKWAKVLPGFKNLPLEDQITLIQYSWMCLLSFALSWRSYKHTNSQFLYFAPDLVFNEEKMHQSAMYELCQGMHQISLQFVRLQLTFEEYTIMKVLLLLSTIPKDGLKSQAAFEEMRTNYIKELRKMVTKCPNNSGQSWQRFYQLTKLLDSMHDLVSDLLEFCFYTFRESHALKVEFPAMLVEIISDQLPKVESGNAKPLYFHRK
Method: as §1, §2

[5] = target: the molecule itself; experiment: X-ray crystal structure of native MR LBD with deoxycorticosterone (crystal contact)

For C[C@]12CCC(=O)C=C1CC[C@@H]1[C@@H]2[C@@H](O)C[C@]2(C=O)[C@@H](C(=O)CO)CC[C@@H]12 [Aldosterone, aldosterone], the IC50 ([1]; in uM) was > 10 µM.

For C[C@]12CCC(=O)C=C1CC[C@@H]1[C@@H]2[C@@H](O)C[C@@]2(C)[C@H]1CC[C@]2(O)C(=O)CO [Cortisol, cortisol], the IC50 ([1]; cells printed in nM) is listed as 0.785 µM, the IC50 ([2]; Wild type MR, cells printed in nM, read-out: IC50 binding affinity, Wild type MR) is listed as 21 nM and the “binding affinity for MR in words” value [3] is listed as “low nM binder”. For the same molecule, the IC50 [4] was 20 nM.

For C[C@]12CCC(=O)C=C1CC[C@@H]1[C@@H]2C(=O)C[C@@]2(C)[C@H]1CC[C@]2(O)C(=O)CO [Cortisone, cortisone], the IC50 ([1]; in uM) was > 10 µM, the IC50 ([2]; Wild type MR, in uM, read-out: IC50 binding affinity, Wild type MR) was > 10000 nM and the “fold difference in IC50s between cortisone and cortisol” value ([2]; wild type MR, transactivation assays) was > 700 fold. For the same molecule, the IC50 ([2]; wild-type MR, read-out: IC50 binding affinity, wild-type MR) was > 10000 nM, the “binding affinity for MR in words” value [3] was “micromolar binder” and the IC50 [4] was 20 nM.

In the case of CC(=O)[C@H]1CC[C@H]2[C@@H]3CCC4=CC(=O)CC[C@]4(C)[C@H]3CC[C@]12C [Progesterone, progesterone], the IC50 ([1]; in uM) is reported as > 10 µM.

CC(=O)S[C@@H]1CC2=CC(=O)CC[C@]2(C)[C@H]2CC[C@@]3(C)[C@@H](CC[C@@]34CCC(=O)O4)[C@H]12 [Spironolactone, spironolactone] gave an IC50 ([1]; cells printed in nM) of 0.0036 µM.

B1: Native (wild type) MR LBD (amino acids 712-984) (receptor)
chain: APAKEPSVNTALVPQLSTISRALTPSPVMVLENIEPEIVYAGYDSSKPDTAENLLSTLNRLAGKQMIQVVKWAKVLPGFKNLPLEDQITLIQYSWMCLSSFALSWRSYKHTNSQFLYFAPDLVFNEEKMHQSAMYELCQGMHQISLQFVRLQLTFEEYTIMKVLLLLSTIPKDGLKSQAAFEEMRTNYIKELRKMVTKCPNNSGQSWQRFYQLTKLLDSMHDLVSDLLEFCFYTFRESHALKVEFPAMLVEIISDQLPKVESGNAKPLYFHRK
notes: Crystallized with deoxycorticosterone; the final model holds residues 727-908 and 914-984; also called native MR; WT MR
B1: binds [5].
